These results are taken from ChEMBL document CHEMBL5442168, “ASAP - In vitro liver microsomal stability” (2024).

Where “and” joins values, the source holds several entries; their conditions need not be identical. Identical values can stand only once.

A short description of data set [1]: Human liver microsomal stability of compound in microsomal protein, PBS buffer pH 7.4, NADPH, glucose-6-phosphate and glucose-6-phosphate dehydrogenase media. Aliquotes were taken at 5 time points and after stopping the reaction, supernatants were analyzed using HPLC coupled with a tandem mass spectrometer. The elimination constant, half-life, and intrinsic clearance are determined as results using linear regression analysis. The assay has been performed by Enamine biological services, Bienta Ltd.The protocol is publicly available: dx.doi.org/10.17504/protocols.io.5qpvokdb9l4o/v1. It is filed as ADME, microsomes, Microsome. The following applies: for half-life / microsomal CLint: liver microsomes; for Remaining / Remaining (without cofactor) / CLint / T1/2: microsomes. (Liver microsomes are vesicles of endoplasmic reticulum, rich in cytochrome P450 enzymes.)

The nature of data set [2]: Mouse liver microsomal stability of compound in microsomal protein, PBS buffer pH 7.4, NADPH, glucose-6-phosphate and glucose-6-phosphate dehydrogenase media. Aliquotes were taken at 5 time points and after stopping the reaction, supernatants were analyzed using HPLC coupled with a tandem mass spectrometer. The elimination constant, half-life, and intrinsic clearance are determined as results using linear regression analysis. The assay has been performed by Enamine biological services, Bienta Ltd.The protocol is publicly available: dx.doi.org/10.17504/protocols.io.5qpvokdb9l4o/v1. The format is ADME, microsomes, Microsome. The note with it: for half-life / microsomal CLint: liver microsomes; for Remaining / Remaining (without cofactor) / CLint / T1/2: microsomes.
Throughout, for Remaining (without cofactor): time not given here.
Throughout, for Remaining: time not given here.

For the compound `CC(C)[C@@H](Nc1ncnc2[nH]c(-c3ccc4nnn(C)c4c3)cc12)c1ccc2c(c1)S(=O)(=O)CCC2`, in data set [1], the half-life (commonly the time in which the quantity being followed falls by half) came to 2.2 min; the microsomal CLint (in general, a measure of how fast metabolising enzymes remove a compound, apart from limits set by blood flow) turned out to be 752 µL/min/mg; the Remaining is given as 0%; the “Remaining (without cofactor)” value is 93%. In data set [2], the half-life was found to be 7.6 min, the microsomal CLint was determined as 219 µL/min/mg, the Remaining is listed as 3% and the “Remaining (without cofactor)” value is recorded as 93%.
On to `CNC(=O)c1c[nH]c2ncnc(N[C@@H](c3ccc4c(c3)S(=O)(=O)CCC4)C(C)C)c12`, for which, in data set [1], the half-life turned out to be 12.8 min; the microsomal CLint is 131 µL/min/mg; the CLint was 108 µL/min/mg; the Remaining was 11% and 17%. In addition, in data set [1], the “Remaining (without cofactor)” value is 104% and 94%; the T1/2 is 15.4 min. Further, in data set [2], the half-life was determined as 8.7 min; the microsomal CLint worked out at 192 µL/min/mg; the CLint turned out to be 113 µL/min/mg; the “Remaining (without cofactor)” value was 92% and 108%. In data set [2], this compound gave a T1/2 of 14.7 min.
In the case of `CC(C)(C)[C@H](Nc1ncnc2[nH]c(-c3cnn(CC(N)=O)c3)cc12)c1ccc2c(n1)OCCO2`, in data set [1], the half-life is 60.8 min, the microsomal CLint is 27 µL/min/mg, the Remaining is 64% and the “Remaining (without cofactor)” value was 95%. Further, in data set [2], the half-life came to 162 min, the microsomal CLint is 10 µL/min/mg, the Remaining was determined as 88% and the “Remaining (without cofactor)” value amounted to 116%.
On to `CC(C)[C@@H](Nc1ncnc2[nH]c(-c3cnn(CC(N)=O)c3)cc12)c1ccc2c(c1)OCCO2`, for which, in data set [1], the CLint was 99 µL/min/mg and 238 µL/min/mg; the “Remaining (without cofactor)” value was 103% and 90%; the T1/2 is 16.9 min and 7 min. In addition, in data set [2], the half-life came to 41.1 min; the microsomal CLint stood at 41 µL/min/mg; the CLint was 42 µL/min/mg; the Remaining is 54% and 49%. In addition, in data set [2], the “Remaining (without cofactor)” value is 87% and 98%; the T1/2 is 40 min.
Take `Cn1ncc(-c2cc3c(N[C@@H](c4ccc5c(c4)OCCO5)C(C)(C)C)ncnc3[nH]2)c1C#N`: in data set [1], the half-life was 19.6 min, the microsomal CLint turned out to be 85 µL/min/mg, the Remaining came out at 22% and the “Remaining (without cofactor)” value is listed as 109%. Besides, in data set [2], the half-life amounted to 8.4 min, the microsomal CLint stood at 199 µL/min/mg, the Remaining worked out at 4% and the “Remaining (without cofactor)” value is reported as 100%.
`Cc1nn(C)cc1-c1cc2c(N[C@@H](c3ccc4c(c3)S(=O)(=O)CCC4)C(C)C)ncnc2[nH]1`: in data set [1], the half-life worked out at 6.6 min, the microsomal CLint amounted to 251 µL/min/mg, the Remaining came to 2% and the “Remaining (without cofactor)” value came out at 116%. Further, in data set [2], the half-life amounted to 4.3 min, the microsomal CLint was determined as 390 µL/min/mg, the Remaining was found to be 1% and the “Remaining (without cofactor)” value is given as 103%.
For `CNC(=O)c1cccc(-c2cc3c(N[C@@H](c4ccc5c(c4)S(=O)(=O)CCC5)C(C)C)ncnc3[nH]2)c1`, in data set [1], the half-life worked out at 3.7 min, the microsomal CLint is 455 µL/min/mg, the Remaining is recorded as 0% and the “Remaining (without cofactor)” value was determined as 93%. Further, in data set [2], the half-life was 1.9 min, the microsomal CLint was 882 µL/min/mg, the Remaining stood at 1% and the “Remaining (without cofactor)” value is 101%.
`CC(C)[C@H](Nc1ncnc2[nH]c(-c3cnn(C)c3C#N)cc12)c1ccc2c(c1)OCCO2`: in data set [1], the half-life was determined as 2.4 min, the microsomal CLint turned out to be 706 µL/min/mg, the Remaining was 1% and the “Remaining (without cofactor)” value worked out at 103%. In addition, in data set [2], the half-life was found to be 6.5 min, the microsomal CLint amounted to 257 µL/min/mg, the Remaining is 2% and the “Remaining (without cofactor)” value is listed as 113%.
As to `CC(C)[C@H](Nc1ncnc2[nH]c(-c3cnn(CC(N)=O)c3)cc12)c1ccc2c(c1)S(=O)(=O)CCC2`, in data set [1], the half-life is 7 min, the microsomal CLint was determined as 240 µL/min/mg, the Remaining came to 2% and the “Remaining (without cofactor)” value worked out at 115%. Besides, in data set [2], the half-life is 42.6 min, the microsomal CLint stood at 39 µL/min/mg, the Remaining is recorded as 53% and the “Remaining (without cofactor)” value is reported as 98%.
`CC(C)[C@@H](Nc1ncnc2[nH]c(-c3cnn(CC(=O)N(C)C)c3)cc12)c1ccc2c(c1)OCCO2`: in data set [1], the half-life was 11.8 min; the microsomal CLint is 142 µL/min/mg; the CLint turned out to be 108 µL/min/mg; the Remaining was 9% and 18%. In addition, in data set [1], the “Remaining (without cofactor)” value was 110% and 114%; the T1/2 is given as 15.4 min. Moreover, in data set [2], the half-life was found to be 28.1 min; the microsomal CLint stood at 59 µL/min/mg; the CLint is 45 µL/min/mg; the Remaining is 39% and 48%. In data set [2], the “Remaining (without cofactor)” value was 98% and 114%; the T1/2 is 36.8 min.
With `CNC(=O)c1cc2c(N[C@@H](c3ccc4c(c3)S(=O)(=O)CCC4)C(C)C)ncnc2[nH]1`, in data set [1], the Remaining was 25% and 0%; the “Remaining (without cofactor)” value is 101% and 94%. In data set [2], the half-life worked out at 36.5 min; the microsomal CLint was 46 µL/min/mg; the CLint worked out at 23 µL/min/mg; the Remaining is 47% and 69%. In data set [2], the “Remaining (without cofactor)” value is 100% and 97%; the T1/2 was found to be 71.6 min.
In data set [1], `CC(C)[C@@H](Nc1ncnc2[nH]c(-c3cnn(CC(N)=O)c3)cc12)c1ccc2c(c1)S(=O)(=O)CCC2` came in with a half-life of 14.4 min, a microsomal CLint of 116 µL/min/mg, a CLint of 115 µL/min/mg and a Remaining of 15%. Besides, in data set [1], the “Remaining (without cofactor)” value was 95% and 103%; the T1/2 is given as 14.5 min. In data set [2], the half-life turned out to be 27.4 min; the microsomal CLint is 61 µL/min/mg; the CLint was 96 µL/min/mg; the Remaining is 37% and 20%. Also, in data set [2], the “Remaining (without cofactor)” value was 109% and 111%; the T1/2 was determined as 17.4 min.
For the compound `CC(C)[C@@H](Nc1ncnc2[nH]c(C(=O)N[C@@H]3CCN(C)C3)cc12)c1ccc2c(c1)S(=O)(=O)CCC2`, in data set [1], the half-life came out at 83.8 min, the microsomal CLint was determined as 20 µL/min/mg, the Remaining worked out at 70% and the “Remaining (without cofactor)” value was 106%. In data set [2], the half-life came out at 151 min, the microsomal CLint was 11 µL/min/mg, the Remaining is 80% and the “Remaining (without cofactor)” value stood at 92%.
In data set [1], `CC(C)[C@@H](Nc1ncnc2[nH]c(-c3cnn(CC(N)=O)c3)cc12)c1ccc2c(n1)OCCO2` had a half-life of 120 min, a microsomal CLint of 14 µL/min/mg, a CLint of 18 µL/min/mg and a Remaining of 77%. Further, in data set [1], the “Remaining (without cofactor)” value turned out to be 95% and the T1/2 came to 91.8 min. In data set [2], the half-life was found to be 145 min; the microsomal CLint came out at 12 µL/min/mg; the CLint was 9 µL/min/mg; the Remaining was 83% and 90%. Besides, in data set [2], the “Remaining (without cofactor)” value is 104% and 102%; the T1/2 came out at 182.3 min.
`CC(C)[C@@H](Nc1ncnc2[nH]c(-c3cnn(C)c3C#N)cc12)c1ccc2c(n1)NC(=O)CO2`: in data set [1], the half-life came to 23.7 min; the microsomal CLint came to 70 µL/min/mg; the CLint was determined as 51 µL/min/mg; the Remaining is 30% and 43%. In data set [1], the “Remaining (without cofactor)” value was 97% and 98%; the T1/2 came to 32.6 min. In addition, in data set [2], the half-life is 11.5 min; the microsomal CLint was determined as 145 µL/min/mg; the CLint is 189 µL/min/mg; the Remaining is 9% and 5%. Besides, in data set [2], the “Remaining (without cofactor)” value is recorded as 92% and the T1/2 is 8.8 min.
Take `CC(C)[C@@H](Nc1ncnc2[nH]ccc12)c1ccc2c(c1)NC(=O)CO2`: in data set [1], the half-life was 79 min; the microsomal CLint came out at 21 µL/min/mg; the CLint worked out at 31 µL/min/mg; the Remaining is 73% and 56%. Moreover, in data set [1], the “Remaining (without cofactor)” value is 105% and 92%; the T1/2 is reported as 54.3 min. Moreover, in data set [2], the half-life came to 21.4 min; the microsomal CLint is 78 µL/min/mg; the CLint came out at 80 µL/min/mg; the Remaining is 27% and 26%. Moreover, in data set [2], the “Remaining (without cofactor)” value is 93% and 110%; the T1/2 worked out at 20.9 min.
As for `CC(C)[C@@H](Nc1ncnc2[nH]c(-c3cnn(CCC(N)=O)c3)cc12)c1ccc2c(c1)OCCO2`, in data set [1], the half-life worked out at 16.9 min, the microsomal CLint was 99 µL/min/mg, the Remaining was 19% and the “Remaining (without cofactor)” value turned out to be 108%. Moreover, in data set [2], the half-life worked out at 27.1 min, the microsomal CLint amounted to 62 µL/min/mg, the Remaining is 36% and the “Remaining (without cofactor)” value stood at 106%.
On to `CC(C)(C)[C@@H](Nc1ncnc2[nH]c(-c3cnn(CC(N)=O)c3)cc12)c1ccc2c(c1)OCCO2`, for which, in data set [1], the half-life came to 12.6 min; the microsomal CLint was determined as 133 µL/min/mg; the CLint amounted to 100 µL/min/mg; the Remaining is 11% and 18%. Further, in data set [1], the “Remaining (without cofactor)” value was 87% and 109%; the T1/2 was 16.8 min. Also, in data set [2], the half-life came out at 35.2 min; the microsomal CLint is 47 µL/min/mg; the CLint was 39 µL/min/mg; the Remaining is 46% and 54%. In addition, in data set [2], the “Remaining (without cofactor)” value was 107% and 106%; the T1/2 is on record as 43.1 min.
